According to US9145392B2, “Imidazole amines as modulators of kinase activity” (Merck Patent GmbH, priority 2011, dated 2015):

Legend:
[1] = target: His-AKT (Full Length) (Homo sapiens (Human), UniProt P31749); assay: AKT enzyme assay; format: biochemical; settings: read-out: IC50 AKT
Protocol: A TTP Mosquito liquid handling instrument is used to place 125n1 of the appropriate concentration of inhibitor in 100% DMSO (for a dose response curve calculation) into each well of a 384-well plate.
The reaction is incubated for 90 min at 25 C, and then stopped by the addition of 70 μl of Stop buffer (100 mM HEPES pH 7.5, 0.015% Brij-35, 10 mM EDTA (Sigma, E7889)).
The plate is read on a Caliper LC 3000 in an Off-Chip mobility shift assay format, using the following parameters for a 12-sipper chip: screening pressure −2.3 psi, upstream voltage −500, and downstream voltage −3000. These conditions cause unphosphorylated substrate and phosphorylated product peptide to resolve as separate peaks allowing direct measurement of percentage of conversion of substrate to product. The percent conversion can be plotted against concentration of inhibitor to produce a sigmoidal dose response curve, from which an IC50 can be calculated.

[2] = target: P70S6K (T412E mutant) (Homo sapiens (Human), UniProt P23443, T412E); assay: P70S6K enzyme assay; format: biochemical; settings: read-out: IC50 p70S6K
Chain of P70S6K (T412E mutant) (P23443 whole entry T412E): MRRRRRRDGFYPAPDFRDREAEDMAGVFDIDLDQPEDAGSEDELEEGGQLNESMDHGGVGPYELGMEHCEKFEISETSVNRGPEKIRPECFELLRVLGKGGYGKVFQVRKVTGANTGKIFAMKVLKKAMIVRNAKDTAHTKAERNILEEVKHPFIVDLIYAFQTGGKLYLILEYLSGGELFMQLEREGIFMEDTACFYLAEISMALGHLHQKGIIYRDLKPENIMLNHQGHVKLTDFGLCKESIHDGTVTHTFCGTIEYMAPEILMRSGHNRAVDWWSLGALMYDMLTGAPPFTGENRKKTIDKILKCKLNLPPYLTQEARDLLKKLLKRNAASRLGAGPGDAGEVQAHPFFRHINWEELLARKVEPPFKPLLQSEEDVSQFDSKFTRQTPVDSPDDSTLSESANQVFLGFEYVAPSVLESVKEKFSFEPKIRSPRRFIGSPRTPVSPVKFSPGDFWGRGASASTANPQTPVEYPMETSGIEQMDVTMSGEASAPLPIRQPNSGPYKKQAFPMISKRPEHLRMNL
Protocol: P70S6K inhibitor compounds are diluted and plated in 96 well plates. […] The reaction is incubated for 90 min at 25° C., before the addition of 10 mM EDTA to stop the reaction. The proportion of substrate and product (phosphorylated) peptide is analysed on a Caliper Life Sciences Lab Chip 3000, using a pressure of −1.4 psi, and upstream and downstream voltages of −3000 and −700 respectively. Product peaks are resolved before substrate peaks on the resulting chromatograms.

Chain of His-AKT (Full Length) (P31749 whole entry): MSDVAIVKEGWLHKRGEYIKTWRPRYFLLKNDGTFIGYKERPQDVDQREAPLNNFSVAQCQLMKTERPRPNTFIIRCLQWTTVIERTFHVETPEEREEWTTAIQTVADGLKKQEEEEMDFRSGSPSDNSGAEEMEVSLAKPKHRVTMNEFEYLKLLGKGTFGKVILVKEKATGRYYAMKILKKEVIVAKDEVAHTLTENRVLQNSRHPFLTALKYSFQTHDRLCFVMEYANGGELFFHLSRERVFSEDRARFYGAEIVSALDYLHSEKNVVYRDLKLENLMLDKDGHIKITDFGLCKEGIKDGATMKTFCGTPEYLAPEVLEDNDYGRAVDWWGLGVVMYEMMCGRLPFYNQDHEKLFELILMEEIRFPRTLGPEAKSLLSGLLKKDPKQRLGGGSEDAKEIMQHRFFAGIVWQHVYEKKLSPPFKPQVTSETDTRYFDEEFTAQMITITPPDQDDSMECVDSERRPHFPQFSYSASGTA

NC(=O)c1c(N)ncnc1N1CCC(c2nc(-c3ccc(F)cc3)cn2CCN2CCCC2)CC1 [Compound 333]
IC50 [1]: 380 nM
IC50 [2]: 21 nM

COCCNCCn1cc(-c2ccc(F)c(C(F)(F)F)c2)nc1C1CCN(c2ncnc(N)c2C(N)=O)CC1 [Compound 367, 4-Amino-6-(4-{4-(4-fluoro-3-trifluoromethyl-phenyl)-1-[2-(2-methoxy-ethylamino)-ethyl]-1H-imidazol-2-yl}-piperidin-1-yl)-pyrimidine-5-carboxylic acid amide]
IC50 [1]: 67 nM
IC50 [2]: 4 nM

CC(C)Oc1c(N)ncnc1N1CCC(c2nc(-c3ccc(F)c(Cl)c3)cn2CCN2CCCC2)CC1 [Compound 290]
IC50 [1]: 2 nM
IC50 [2]: 1.3 nM

Nc1cc(N2CCC(c3nc(-c4ccc(F)c(C(F)(F)F)c4)cn3CCN3CCCC3)CC2)ncn1 [Compound 214]
IC50 [1]: 180 nM
IC50 [2]: 50 nM

C=Cc1c(N)ncnc1N1CCC(c2nc(-c3ccnc(C(C)C)c3)cn2CCN2CCC2)CC1 [Compound 182, 6-(4-(1-(2-(azetidin-1-yl)ethyl)-4-(2-isopropylpyridin-4-yl)-1H-imidazol-2-yl)piperidin-1-yl)-5-vinylpyrimidin-4-amine]
IC50 [1]: 2.2 nM
IC50 [2]: 0.7 nM

COC(=O)c1ccc(-c2c(N)ncnc2N2CCC(c3nc(-c4ccc(F)c(C(F)(F)F)c4)cn3CCN3CCCC3)CC2)cc1 [Compound 223]
IC50 [1]: 78 nM
IC50 [2]: 21 nM

N#Cc1c(N)ncnc1N1CCC(c2nc(-c3ccc(F)c(C(F)(F)F)c3)cn2CCN2CCC2)CC1 [Compound 74, 4-Amino-6-{4-[1-(2-azetidin-1-yl-ethyl)-4-(4-fluoro-3-trifluoromethyl-phenyl)-1H-imidazol-2-yl]-piperidin-1-yl}-pyrimidine-5-carbonitrile]
IC50 [1]: 2.6 nM
IC50 [2]: 1.2 nM

NC(=O)c1c(N)ncnc1N1CCC(c2nc(-c3ccc(F)c(C(F)(F)F)c3)cn2CCNC2CCCC2)CC1 [Compound 387, 4-Amino-6-{4-[1-(2-cyclopentylamino-ethyl)-4-(4-fluoro-3-trifluoromethyl-phenyl)-1H-imidazol-2-yl]-piperidin-1-yl}-pyrimidine-5-carboxylic acid amide]
IC50 [1]: 8.4 nM
IC50 [2]: 1.4 nM

CCC(C)(C)NCCn1cc(-c2ccc(F)c(C(F)(F)F)c2)nc1C1CCN(c2ncnc(N)c2C(N)=O)CC1 [Compound 388, 4-Amino-6-{4-[1-[2-(1,1-dimethyl-propylamino)-ethyl]-4-(4-fluoro-3-trifluoromethyl-phenyl)-1H-imidazol-2-yl]-piperidin-1-yl}-pyrimidine-5-carboxylic acid amide]
IC50 [1]: 13 nM
IC50 [2]: 2 nM

Nc1ncnc(N2CCC(c3nc(-c4ccc(F)c(C(F)(F)F)c4)cn3CCN3CCC3)CC2)c1-c1ccc(F)cc1 [Compound 219]
IC50 [1]: 2.3 nM
IC50 [2]: 2.4 nM

Cc1cc(-c2cn(CC3CNC3)c(C3CCN(c4ncnc(N)c4C(C)C)CC3)n2)ccc1F [Compound 189, 6-(4-(1-(azetidin-3-ylmethyl)-4-(4-fluoro-3-methylphenyl)-1H-imidazol-2-yl)piperidin-1-yl)-5-isopropylpyrimidin-4-amine]
IC50 [1]: 4.5 nM
IC50 [2]: 1.1 nM

Cn1cc(-c2ccc(F)c(C(F)(F)F)c2)nc1C1CCN(c2ncnc(N)c2-c2cccnc2)CC1 [Compound 53, 6-{4-[4-(4-Fluoro-3-trifluoromethyl-phenyl)-1-methyl-1H-imidazol-2-yl]-piperidin-1-yl}-5-pyridin-3-yl-pyrimidin-4-ylamine]
IC50 [1]: 880 nM
IC50 [2]: 2.3 nM

Nc1ncnc(N2CCC(c3nc(-c4ccc(F)c(C(F)(F)F)c4)cn3CCN3CCCC3)CC2)c1Cl [Compound 209]
IC50 [1]: 2.2 nM
IC50 [2]: 3.1 nM

CCc1c(N)ncnc1N1CCC(c2nc(-c3ccc(Cl)c(F)c3)cn2CCN2CCCC2)CC1 [Compound 251]
IC50 [1]: 76 nM
IC50 [2]: 2.6 nM

CN(C)CCn1cc(-c2ccc(F)c(C(F)(F)F)c2)nc1C1CCN(c2ncnc(N)c2/C=C/C2CC2)CC1 [Compound 85, (E)-5-(2-Cyclopropylvinyl)-6-(4-(1-(2-(dimethylamino)ethyl)-4-(4-fluoro-3-(trifluoromethyl)phenyl)-1H-imidazol-2-yl)piperidin-1-yl)pyrimidin-4-amine]
IC50 [1]: 43 nM
IC50 [2]: 12 nM

Nc1ncnc(N2CCC(c3nc(-c4ccc(F)c(C(F)(F)F)c4)cn3CCN3CCCCC3)CC2)c1Cl [Compound 216]
IC50 [1]: 9 nM
IC50 [2]: 3.8 nM

Nc1ncnc(N2CCC(c3nc(-c4ccc(Cl)c(F)c4)cn3CCN3CCCC3)CC2)c1C1CCC1 [Compound 260]
IC50 [1]: 67 nM
IC50 [2]: 21 nM

CCc1c(N)ncnc1N1CCC(c2nc(-c3ccc(F)c(C)c3)cn2CC2CN(C)C2)CC1 [Compound 400, 5-Ethyl-6-{4-[4-(4-fluoro-3-methyl-phenyl)-1-(1-methyl-azetidin-3-ylmethyl)-1H-imidazol-2-yl]-piperidin-1-yl}-pyrimidin-4-ylamine]
IC50 [1]: 0.3 nM
IC50 [2]: 0.06 nM

CCc1c(N)ncnc1N1CCC(c2nc(-c3cccc(C(F)(F)F)n3)cn2CCN2CCC2)CC1 [Compound 119, 6-(4-(1-(2-(azetidin-1-yl)ethyl)-4-(6-(trifluoromethyl)pyridin-2-yl)-1H-imidazol-2-yl)piperidin-1-yl)-5-ethylpyrimidin-4-amine]
IC50 [1]: 420 nM
IC50 [2]: 25 nM

CCc1c(N)ncnc1N1CCC(c2nc(-c3ccc(F)c(C(F)(F)F)c3)cn2C2CCNCC2)CC1 [Compound 157, 5-ethyl-6-(4-(4-(4-fluoro-3-(trifluoromethyl)phenyl)-1-(piperidin-4-yl)-1H-imidazol-2-yl)piperidin-1-yl)pyrimidin-4-amine]
IC50 [1]: 190 nM
IC50 [2]: 2 nM

CCN(CC)CCn1cc(-c2ccc(F)c(C)c2)nc1C1CCN(c2ncnc(N)c2C#N)CC1 [Compound 326]
IC50 [1]: 2.5 nM
IC50 [2]: 2.7 nM

CCc1c(N)ncnc1N1CCC(c2nc(-c3ccc(F)c(C)c3)cn2CCN(CC)C(C)C)CC1 [Compound 300]
IC50 [1]: 8.9 nM
IC50 [2]: 3.1 nM

CN(C)CCn1cc(-c2ccc(F)c(C(F)(F)F)c2)nc1C1CCN(c2ncnc(N)c2-c2ccc(F)cc2)CC1 [Compound 68, 6-{4-[1-(2-Dimethylamino-ethyl)-4-(4-fluoro-3-trifluoromethyl-phenyl)-1H-imidazol-2-yl]-piperidin-1-yl}-5-(4-fluoro-phenyl)-pyrimidin-4-ylamine]
IC50 [1]: 230 nM
IC50 [2]: 7.3 nM

Nc1ncnc(N2CCC(c3nc(-c4ccnc(C(F)(F)F)c4)cn3CCN3CCC3)CC2)c1-c1cnoc1 [Compound 168, 6-(4-(1-(2-(azetidin-1-yl)ethyl)-4-(2-(trifluoromethyl)pyridin-4-yl)-1H-imidazol-2-yl)piperidin-1-yl)-5-(isoxazol-4-yl)pyrimidin-4-amine]
IC50 [1]: 2.7 nM
IC50 [2]: 2.9 nM

CCO/C=C/c1c(N)ncnc1N1CCC(c2nc(-c3ccc(F)c(C(F)(F)F)c3)cn2CCN(C)C)CC1 [Compound 86, (E)-6-(4-(1-(2-(Dimethylamino)ethyl)-4-(4-fluoro-3-(trifluoromethyl)phenyl)-1H-imidazol-2-yl)piperidin-1-yl)-5-(2-ethoxyvinyl)pyrimidin-4-amine]
IC50 [1]: 4 nM
IC50 [2]: 1.9 nM

Cn1cc(-c2ccc(F)c(C(F)(F)F)c2)nc1C1CCN(c2ncnc(N)c2-c2cncnc2)CC1 [Compound 48, 6-{4-[4-(4-Fluoro-3-trifluoromethyl-phenyl)-1-methyl-1H-imidazol-2-yl]-piperidin-1-yl}-[5,5′]bipyrimidinyl-4-ylamine]
IC50 [1]: 440 nM
IC50 [2]: 2.7 nM

CCc1cc(-c2cn(CCN3CCC3)c(C3CCN(c4ncnc(N)c4C(N)=O)CC3)n2)ccn1 [Compound 341]
IC50 [1]: 450 nM
IC50 [2]: 11 nM

COc1ccc(-c2c(N)ncnc2N2CCC(c3nc(-c4ccc(F)c(C(F)(F)F)c4)cn3C)CC2)cc1 [Compound 11, 6-{4-[4-(4-Fluoro-3-trifluoromethyl-phenyl)-1-methyl-1H-imidazol-2-yl]-piperidin-1-yl}-5-(4-methoxy-phenyl)-pyrimidin-4-ylamine]
IC50 [1]: 520 nM
IC50 [2]: 4.7 nM

CCOc1c(N)ncnc1N1CCC(c2nc(-c3ccc(F)c(C)c3)cn2CCO)CC1 [Compound 396, 2-[2-[1-(6-Amino-5-ethoxy-pyrimidin-4-yl)-piperidin-4-yl]-4-(4-fluoro-3-methyl-phenyl)-imidazol-1-yl]-ethanol]
IC50 [1]: 340 nM
IC50 [2]: 3.5 nM

Cn1cc(-c2ccc(F)c(C(F)(F)F)c2)nc1C1CCN(c2ncnc(N)c2CO)CC1 [Compound 36, (4-Amino-6-{4-[4-(4-fluoro-3-trifluoromethyl-phenyl)-1-methyl-1H-imidazol-2-yl]-piperidin-1-yl}-pyrimidin-5-yl)-methanol]
IC50 [1]: 1100 nM
IC50 [2]: 2.2 nM

Nc1ncnc(N2CCC(c3nc(-c4ccnc(C(F)(F)F)c4)cn3CCNCCCCl)CC2)c1Br [Compound 127, 5-bromo-6-(4-(1-(2-((3-chloropropyl)amino)ethyl)-4-(2-(trifluoromethyl)pyridin-4-yl)-1H-imidazol-2-yl)piperidin-1-yl)pyrimidin-4-amine]
IC50 [1]: 2.8 nM
IC50 [2]: 1 nM
